# Laboratory results published in patent publication US6706663B2, “Herbicidal 3-heterocyclic substituted benzisothiazole and benzisoxazole compounds” (Wyeth, priority 2000, dated 2004).
# Legend:
# [1] = tested on: ABUTH (Abutilon theophrasti); assay: Postemergence herbicidal evaluation; type: in vivo, Medic.
# Procedure, shortened: (§1)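 Seedlings grown about two weeks in flats, sprayed, then kept under standard greenhouse care. Rated visually 4–5 weeks after treatment on a 0–9 scale (stand, vigour, malformation, size, chlorosis, overall appearance) relative to untreated control; repeat tests averaged.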
# ZEAMX (Corn, Field) = assay: Postemergence herbicidal evaluation; type: in vivo, Zea mays, L.
# Procedure, shortened: as §1
# [2] = tested on: ABUTH (Abutilon theophrasti); assay: Preemergence herbicidal evaluation; type: in vivo, Medic.; settings: preemergence, rated 4-5 weeks after treatment
# [3] = tested on: AMBEL (Ambrosia artemisifolia); assay: Postemergence herbicidal evaluation; type: in vivo, L.
# Procedure, shortened: as §1
# [4] = tested on: CASOB (Cassia obtusifolia); assay: Postemergence herbicidal evaluation; type: in vivo, L.
# Procedure, shortened: as §1
# [5] = tested on: CHEAL (Chenopodium album); assay: Postemergence herbicidal evaluation; type: in vivo, L.
# Procedure, shortened: as §1
# [6] = tested on: IPOHE (Ipomoea hederacea); assay: Preemergence herbicidal evaluation; type: in vivo, (L.) Jacq.; settings: preemergence, rated 4-5 weeks after treatment
# [7] = tested on: SAGPY (Sagittaria pygmaea); assay: Flooded paddy, preemergence weed control; type: in vivo, L.; settings: rated 3-4 weeks after treatment, 0-9 rating scale
# Procedure, shortened: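 Scoring used a 0-9 visual scale relative to control. Before that, seeds or propagules were planted shallowly in silt loam and flooded to 1.5–3 cm, a depth maintained throughout, with greenhouse care during the test.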
# [8] = tested on: ECHCG (Echinochloa crus-galli); assay: Postemergence herbicidal evaluation; type: in vivo, (L.) Beau
# Procedure, shortened: as §1
# [9] = tested on: AMBEL (Ambrosia artemisifolia); assay: Preemergence herbicidal evaluation; type: in vivo, L.; settings: preemergence, rated 4-5 weeks after treatment
# Procedure, shortened: (§2)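 Seeds planted in potting soil cups and sprayed preemergence with aqueous acetone compound solution. Greenhouse-grown; rated 4–5 weeks after treatment on a 0-9 visual scale (stand, vigor, malformation, size, chlorosis, appearance) versus control.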
# [10] = tested on: CASOB (Cassia obtusifolia); assay: Preemergence herbicidal evaluation; type: in vivo, L.; settings: preemergence, rated 4-5 weeks after treatment
# Procedure, shortened: as §2
# [11] = tested on: CHEAL (Chenopodium album); assay: Preemergence herbicidal evaluation; type: in vivo, L.; settings: preemergence, rated 4-5 weeks after treatment
# Procedure, shortened: as §2
# ORYSAT (Rice, Tebonnet) [12] = assay: Postemergence herbicidal evaluation; type: in vivo, Oryza sativa, (L.) Tebonnet
# Procedure, shortened: as §1
# GALAP (Galium aparine) [13] = assay: Postemergence herbicidal evaluation; type: in vivo
# Procedure, shortened: as §1
# [14] = tested on: GLXMAW (Soybean, Williams); assay: Postemergence herbicidal evaluation; type: in vivo, Glycine max, (L.) Merr. cv Williams
# Procedure, shortened: as §1
# GALAP (Galium aparine) [15] = assay: Preemergence herbicidal evaluation; type: in vivo; settings: preemergence, rated 4-5 weeks after treatment
# Procedure, shortened: as §2
# ORYSAT (Rice, Tebonnet) [16] = assay: Flooded paddy, post-transplant rice tolerance; type: in vivo, Oryza sativa, (L.) Tebonnet; settings: flooded paddy, post-transplant rice, rated 3-4 weeks after treatment, 0-9 rating scale
# Procedure, shortened: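 Two ten-day-old Tebonnet rice seedlings transplanted into silt loam, then flooded with water held at 1.5–3 cm above soil; herbicide applied post-transplant. Plants kept in greenhouse and rated visually 0–9 versus untreated control for stand, vigor, malformation, size and chlorosis.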
# ORYSAT (Rice, Tebonnet) [17] = assay: Preemergence herbicidal evaluation; type: in vivo, Oryza sativa, (L.) Tebonnet; settings: preemergence, rated 4-5 weeks after treatment
# [18] = tested on: CYPSE (Cyperus serotinus); assay: Flooded paddy, preemergence weed control; type: in vivo, Rottb.; settings: rated 3-4 weeks after treatment, 0-9 rating scale
# Procedure, shortened: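 Seeds or propagules were planted 0.5 cm deep in silt loam and flooded to 1.5–3 cm. Compounds in 50/50 v/v aqueous/acetone were pipetted into the flood water at about 0.0080 to 0.1250 kg/ha. After 3–4 weeks in the greenhouse, effect was rated visually on a 0–9 scale versus untreated control.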
# [19] = tested on: TRZAWR (Wheat, Winter, cv Riband); assay: Preemergence herbicidal evaluation; type: in vivo, Triticum aestivum; settings: preemergence, rated 4-5 weeks after treatment
# Procedure, shortened: as §2
smiles,measurement,setting,value
"COc1ccsc1-c1nsc2ccc(-n3c(=O)cc(C(F)(F)F)n(C)c3=O)cc12 [Compound 10, 3-[3-(3-methoxy-2-thienyl)-1,2-benzisothiazol-5-yl]-1-methyl-6-(trifluoromethyl)uracil]","Postemergence herbicidal rating, ABUTH",[1]; rate 0.0320 kg/ha,8.0
same,"Postemergence herbicidal rating, ABUTH",[1]; rate 0.0620 kg/ha,8.0
same,"Postemergence herbicidal rating, ABUTH",[1]; rate 0.1250 kg/ha,9.0
same,"Postemergence herbicidal rating, ZEAMX","ZEAMX (Corn, Field); rate 0.0320 kg/ha",3.8
same,"Postemergence herbicidal rating, ZEAMX","ZEAMX (Corn, Field); rate 0.0620 kg/ha",5.0
same,"Postemergence herbicidal rating, ZEAMX","ZEAMX (Corn, Field); rate 0.1250 kg/ha",5.0
same,ABUTH preemergence herbicidal rating,[2]; Rate 0.0620 kg/ha,7.0
same,ABUTH preemergence herbicidal rating,[2]; Rate 0.1250 kg/ha,9.0
same,ABUTH preemergence herbicidal rating,[2]; Rate 0.2500 kg/ha,9.0
same,"Postemergence herbicidal rating, AMBEL",[3]; rate 0.0320 kg/ha,2.0
same,"Postemergence herbicidal rating, AMBEL",[3]; rate 0.0620 kg/ha,3.0
same,"Postemergence herbicidal rating, AMBEL",[3]; rate 0.1250 kg/ha,9.0
same,"Postemergence herbicidal rating, CASOB",[4]; rate 0.0320 kg/ha,0.0
same,"Postemergence herbicidal rating, CASOB",[4]; rate 0.0620 kg/ha,0.0
same,"Postemergence herbicidal rating, CASOB",[4]; rate 0.1250 kg/ha,1.0
same,"Postemergence herbicidal rating, CHEAL",[5]; rate 0.0320 kg/ha,1.0
same,"Postemergence herbicidal rating, CHEAL",[5]; rate 0.0620 kg/ha,1.0
same,"Postemergence herbicidal rating, CHEAL",[5]; rate 0.1250 kg/ha,4.0
same,IPOHE preemergence herbicidal rating,[6]; Rate 0.0620 kg/ha,0.5
same,IPOHE preemergence herbicidal rating,[6]; Rate 0.1250 kg/ha,0.5
same,IPOHE preemergence herbicidal rating,[6]; Rate 0.2500 kg/ha,2.0
same,"herbicidal rating, SAGPY",[7]; rate 0.0320 kg/ha,0.0
same,"herbicidal rating, SAGPY",[7]; rate 0.1250 kg/ha,0.0
same,"Postemergence herbicidal rating, ECHCG",[8]; rate 0.0320 kg/ha,0.0
same,"Postemergence herbicidal rating, ECHCG",[8]; rate 0.0620 kg/ha,0.0
same,"Postemergence herbicidal rating, ECHCG",[8]; rate 0.1250 kg/ha,0.0
same,AMBEL preemergence herbicidal rating,[9]; Rate 0.0620 kg/ha,4.0
same,AMBEL preemergence herbicidal rating,[9]; Rate 0.1250 kg/ha,6.0
same,AMBEL preemergence herbicidal rating,[9]; Rate 0.2500 kg/ha,7.0
same,CASOB preemergence herbicidal rating,[10]; Rate 0.0620 kg/ha,0.5
same,CASOB preemergence herbicidal rating,[10]; Rate 0.1250 kg/ha,1.0
same,CASOB preemergence herbicidal rating,[10]; Rate 0.2500 kg/ha,1.0
same,CHEAL preemergence herbicidal rating,[11]; Rate 0.0620 kg/ha,8.0
same,CHEAL preemergence herbicidal rating,[11]; Rate 0.1250 kg/ha,9.0
same,CHEAL preemergence herbicidal rating,[11]; Rate 0.2500 kg/ha,9.0
same,"Postemergence herbicidal rating, ORYSAT","ORYSAT (Rice, Tebonnet) [12]; rate 0.0320 kg/ha",1.3
same,"Postemergence herbicidal rating, ORYSAT","ORYSAT (Rice, Tebonnet) [12]; rate 0.0620 kg/ha",1.8
same,"Postemergence herbicidal rating, ORYSAT","ORYSAT (Rice, Tebonnet) [12]; rate 0.1250 kg/ha",3.0
same,"Postemergence herbicidal rating, GALAP",GALAP (Galium aparine) [13]; rate 0.0320 kg/ha,1.0
same,"Postemergence herbicidal rating, GALAP",GALAP (Galium aparine) [13]; rate 0.0620 kg/ha,1.0
same,"Postemergence herbicidal rating, GALAP",GALAP (Galium aparine) [13]; rate 0.1250 kg/ha,9.0
same,"Postemergence herbicidal rating, GLXMAW",[14]; rate 0.0320 kg/ha,4.8
same,"Postemergence herbicidal rating, GLXMAW",[14]; rate 0.0620 kg/ha,5.0
same,"Postemergence herbicidal rating, GLXMAW",[14]; rate 0.1250 kg/ha,6.0
same,GALAP preemergence herbicidal rating,GALAP (Galium aparine) [15]; Rate 0.0620 kg/ha,5.0
same,GALAP preemergence herbicidal rating,GALAP (Galium aparine) [15]; Rate 0.1250 kg/ha,8.5
same,GALAP preemergence herbicidal rating,GALAP (Galium aparine) [15]; Rate 0.2500 kg/ha,8.0
same,"herbicidal rating, ORYSAT (rice tolerance)","ORYSAT (Rice, Tebonnet) [16]; rate 0.0320 kg/ha",0.0
same,"herbicidal rating, ORYSAT (rice tolerance)","ORYSAT (Rice, Tebonnet) [16]; rate 0.1250 kg/ha",4.0
same,ORYSAT preemergence herbicidal rating,"ORYSAT (Rice, Tebonnet) [17]; Rate 0.0620 kg/ha",1.0
same,ORYSAT preemergence herbicidal rating,"ORYSAT (Rice, Tebonnet) [17]; Rate 0.1250 kg/ha",3.0
same,ORYSAT preemergence herbicidal rating,"ORYSAT (Rice, Tebonnet) [17]; Rate 0.2500 kg/ha",7.0
same,"herbicidal rating, CYPSE",[18]; rate 0.0320 kg/ha,0.0
same,"herbicidal rating, CYPSE",[18]; rate 0.1250 kg/ha,0.0
same,TRZAWR preemergence herbicidal rating,[19]; Rate 0.0620 kg/ha,1.5
same,TRZAWR preemergence herbicidal rating,[19]; Rate 0.1250 kg/ha,4.5
same,TRZAWR preemergence herbicidal rating,[19]; Rate 0.2500 kg/ha,7.0
